Assay results: ChEMBL document CHEMBL5634155, “Design and synthesis of pyrazole derivatives against neutrophilic inflammation” (Eur J Med Chem, 2023)

Assays:
[1] = tested on: Neutrophil; assay: Inhibition of fMLF/CB-induced human Neutrophil activation assessed as reduction in superoxide anion generation preincubated with compound for 2 mins prior to CB induction for 3 mins followed by fMLF addition by spectrophotometric analysis; type: functional, cell-based
[2] = tested on: Neutrophil; assay: Inhibition of fMLF/CB-induced human Neutrophil activation assessed as reduction in elastase release using MeO-Suc-Ala-Ala-Pro-Val-pnitroanilide as substrate incubated for 5 mins; type: functional, cell-based
[3] = tested on: Neutrophil; assay: Inhibition of fMLF/CB-induced human Neutrophil activation assessed as reduction in elastase release at 10 uM using MeO-Suc-Ala-Ala-Pro-Val-pnitroanilide as substrate incubated for 5 mins relative to control; type: functional
[4] = tested on: Neutrophil; assay: Inhibition of fMLF/CB-induced human Neutrophil activation assessed as reduction in superoxide anion generation at 10 uM preincubated with compound for 2 mins prior to CB induction for 3 mins followed by fMLF addition by spectrophotometric analysis relative to control; type: functional; details: 5 min

Row | SMILES | IC50 [1] [µM] | IC50 [2] [µM] | inhibition at 10 µM [3] [%] | inhibition at 10 µM [4] [%]
1 | COc1cccc(Cn2cc(-c3ccccc3)c(-c3ccccc3)n2)c1 | 164 | > 10 | 25 | 68.6
2 | COc1ccc(-c2nn(Cc3ccccc3)cc2-c2ccccc2)cc1OC | 218 | > 10 | 7.02 | 68.2
3 | OC(c1ccc(-c2nn(Cc3ccccc3F)c3ccccc23)o1)C(F)(F)F (stereo not given) | > 10 | > 10 | 10.3 | 35.7
4 | c1ccc(Cn2nc(-c3ccco3)cc2-c2ccccc2)cc1 | 0.0751 | > 10 | 46 | 73
5 | c1ccc(-c2cc(-c3ccco3)nn2CC2CCCCC2)cc1 | 0.2 | 2.42 | 109 | 99.3
6 | COc1cccc(Cn2nc(-c3ccccc3)cc2-c2ccccc2)c1 | > 10 | > 10 | 1.65 | 8.5
7 | Fc1cccc(Cn2nc(-c3cccs3)cc2-c2ccccc2)c1 | 0.0762 | > 10 | 35.5 | 73.3
8 | O=Cc1ccc(-c2nn(C(=O)c3ccccc3F)c3ccccc23)o1 | > 10 | > 10 | 52.2 | 31.8
9 | CCCCCCCn1nc(-c2ccco2)c2ccccc21 | > 10 | > 10 | 44.2 | 8.38
10 | O=[N+]([O-])c1cccc2c(-c3ccc(CO)o3)nn(Cc3ccccc3)c12 | 1.81 | 7.58 | 68.3 | 82.6
11 | COc1ccccc1C(=O)n1nc(-c2ccc(C=O)o2)c2ccccc21 | > 10 | > 10 | 31.8 | 10.4
12 | c1ccc(-c2cn(CC3CCCCC3)nc2-c2ccccc2)cc1 | > 10 | > 10 | 8.93 | 6.73
13 | O=Cc1ccc(-c2nn(C(=O)c3ccccc3)c3ccccc23)o1 | > 10 | > 10 | 18.1 | 10.1
14 | O=C(c1ccccc1F)n1nc(-c2ccco2)c2ccccc21 | 0.34 | > 10 | -9.57 | 69.5
15 | Fc1ccccc1Cn1nc(-c2ccccc2)cc1-c1ccccc1 | 4.69 | > 10 | 35 | 61.8
16 | CCC(=O)c1ccc(-c2nn(Cc3ccccc3F)c3ccccc23)o1 | 0.18 | 2.54 | 93.4 | 106
17 | CCCCCCCn1cc(-c2ccccc2)c(-c2cccs2)n1 | > 10 | > 10 | 21 | -5.72
18 | Fc1cccc(Cn2cc(-c3ccccc3)c(-c3cccs3)n2)c1 | 1.79 | > 10 | 33.6 | 63.7
19 | COc1ccccc1C(=O)n1nc(-c2ccco2)c2ccccc21 | > 10 | > 10 | -0.2 | 14.5
20 | O=C(c1ccccc1)n1nc(-c2ccco2)c2ccccc21 | 0.17 | – | – | 59.7
21 | CCCCCCCn1cc(-c2ccccc2)c(-c2ccco2)n1 | – | 1.08 | 110 | 102
22 | c1ccc(Cn2nc(-c3cccs3)cc2-c2ccccc2)cc1 | 0.0745 | > 10 | 39.1 | 70
23 | O=Cc1ccc(-c2cc(-c3ccccc3)n(Cc3ccccc3)n2)o1 | 1.55 | 1.84 | 96.1 | 80.8
24 | CCCCCCCn1nc(-c2ccc(C=O)o2)c2ccccc21 | > 10 | 2.56 | 67.1 | 5.88
25 | c1ccc(Cn2nc(-c3ccccc3)cc2-c2ccccc2)cc1 | 2.83 | > 10 | 36.8 | 63.6
26 | c1ccc(Cn2cc(-c3ccccc3)c(-c3cccs3)n2)cc1 | 145 | > 10 | 23.5 | 65.7
27 | COc1ccc(-c2cc(-c3ccccc3)n(Cc3cccc(F)c3)n2)cc1OC | > 10 | > 10 | 38.5 | 44.5
